5 compounds from ChEMBL document CHEMBL1944508, “Identification of triazolopyridazinones as potent p38α inhibitors” (Bioorg Med Chem Lett, 2012) can be followed below.

Holding throughout (type): ADME, organism-based
The nature of series [1]: Volume of distribution at steady state in Sprague-Dawley rat at 2 mg/kg, iv. The note with it: in vivo, read-out: Vdss. On the set-up: dose 2 mg/kg, route intravenous.
Series [2] can be described thus: Oral bioavailability in Sprague-Dawley rat at 2 mg/kg. The note with it: in vivo.
A short description of series [3]: Half life in Sprague-Dawley rat at 2 mg/kg, iv. Further details: dose 2 mg/kg, route intravenous. To be noted: in vivo.
A short description of series [4]: AUC (0 to infinity) in Sprague-Dawley rat at 2 mg/kg, po. Further details: time infinity, dose 2 mg/kg, route oral. To be noted: plasma.
Series [5] in a line: Clearance in Sprague-Dawley rat at 2 mg/kg, iv. On the set-up: dose 2 mg/kg, route intravenous. To be noted: in vivo.
A short description of series [6]: Clearance in rat. To be noted: in vivo.

Structures are written as SMILES.

As usually defined, the bioavailability is the share of a dose that reaches the circulation, judged against a reference dose that is usually intravenous. Low values mean poor availability, high ones good availability. In general, half-life refers to the time needed for the level to fall by half in the phase considered. In general, AUC(0-inf) refers to the area under the concentration-time curve extrapolated to infinity. Read a low AUC(0-inf) as less exposure. What is called clearance is the rate of elimination divided by the concentration. Higher therefore signals efficient removal. Regarding `CCn1c(=O)c(-c2cc(C(=O)NC3CC3)ccc2C)cc2nnc(-c3c(F)cccc3Cl)n21`, the Vd in series [1] amounted to 2.54 L/kg. In addition, the bioavailability in series [2] was 55%. This compound also showed a half-life in series [3] of 2.76 h. Further, the AUC(0-inf) in series [4] came out at 1420 ng·h/mL. The compound further showed a clearance in series [5] of 13.1 mL/min/kg.
`Cc1ccc(C(=O)NC2CC2)cc1-c1ccn2c(-c3c(F)cccc3F)nnc2c1`: the clearance in series [6] is 6.17 mL/min/kg.
As to `CCn1c(=O)c(-c2cc(C(=O)NC3CC3)cc(F)c2C)cc2nnc(-c3c(F)cccc3Cl)n21`, the Vd in series [1] came to 2.7 L/kg. Further, the bioavailability in series [2] worked out at 42%. The compound further gave a half-life in series [3] of 2.76 h. In series [4], the AUC(0-inf) was 1370 ng·h/mL. This compound also had a clearance in series [5] of 11.4 mL/min/kg.
In series [6], `Cc1ccc(C(=O)NC2CC2)cc1-c1cc2cnn(-c3c(F)cccc3F)c2n(C)c1=O` showed a clearance of 3.67 mL/min/kg.
Turning to `Cc1c(F)cc(C(=O)NC2CC2)cc1-c1cc2nnc(-c3c(F)cccc3Cl)n2n(C)c1=O`, the Vd in series [1] was determined as 2.42 L/kg. This compound also gave a bioavailability in series [2] of 83%. This compound also showed a half-life in series [3] of 3.4 h. This compound also gave an AUC(0-inf) in series [4] of 3190 ng·h/mL. In series [5], this compound gave a clearance of 8.77 mL/min/kg.
